How the values were obtained:
[1] = test system: human mesenchymal stem cells (ASCs); assay: Cytotoxicity by MTT test (cell metabolic activity); assay type: cell-based
Procedure: (§1) Mesenchymal stem cells were isolated from human adipose tissue. Human subcutaneous fat was obtained from healthy patients aged 20 to 80 years old who underwent hip surgery in Bordeaux Pellegrin CHU (Bordeaux, France). Fat mass was separated from other tissues, washed with sterilized PBS, finely cut and incubated with 0.1% (w/v) collagenase type I (Worthington, Lakewood, N.J., USA) at 37° C. with gentle agitation for 1 h 30. After filtration and centrifugation, the top liquid layer was removed and the remaining Stromal Vascular Fraction (SVF) was treated for 10 min with ELB (Erythocyte Lysis Buffer; 155 mM NH4Cl (Sigma-Aldrich, St. Louis, Mo., USA), 5.7 mM K2HPO4, 7.4 mM K2HPO4-3H2O, 0.1 mm EDTA (all Sigma-Aldrich)), and then centrifuged. […]
The cytotoxicity of compound 6 was evaluated by the measurement of the cell metabolic activity (MTT assay). […]
MTT assay was performed after 72 h of incubation. […] Results were expressed as a percentage of the metabolic activity of the positive control. Absorbance was measured at a wavelength of 570 nm with background subtraction at 630 nm.
The cytotoxicity of compound 6 was determined by MTT test to measure the metabolic activity of human mesenchymal stem cells (ASCs) 48 hours after incubation with increasing concentrations of compound 6. […]

[2] = test system: rat osteoblastic cells (A) or human ASCs (B); assay: Cytocompatibility by Alamar Blue metabolism in cells grown in compound 6-based gels; assay type: cell-based; details: compound 6-based gel 3% (w/v)
Procedure: as §1
Cell viability was also evaluated by using the Alamar Blue metabolic activity assay. […] After this time, the fluorescence was measured at wavelengths excitation 530 nm and emission 590 nm. Triplicate samples were analyzed for each experiment. […]
Cytocompatibility was determined by monitoring alamar blue metabolism in rat osteoblastic cells (A) or human ASCs (B) grown in compound 6-based gels. […]

hASCs or D1 = assay: Live/Dead staining (calcein-AM, ethidium homodimer) of cells seeded within gels; assay type: cell-based; details: cells seeded within gel 3% (w/v), at 2 weeks
Procedure: For all in vitro assays, the hydrogel obtained from compound 6 was prepared at a concentration of 3% (w/v). The compound 6 powder was solubilized in PBS 1× under agitation (900 rpm) at 25° C. during 45 minutes. Then, when the gel was formed, it was left at room temperature, without agitation, during 3 to 4 hours. To allow cell seeding, the gel was heated during 30 minutes at 55° C. Once the liquid solution was obtained, it was rapidly cooled down to 37° C. and thoroughly mixed with 10 μL cell suspension at a concentration of 1 million cells per mL of gel. Finally, the cellularized hydrogel was maintained under agitation (600 rpm), at 25° C. during 45 minutes. After this period, medium was been added (250 μL/tube) and tubes were incubated at controlled atmosphere (5% CO2, 37° C.)
[…] Cells seeded within gels were incubated for 1 h at 37° C. in Hank's medium supplemented with 1.25 μL calcein-AM and 5 μL EthD-1.

[3] = Sol-gel transition temperature (Tgel) by rheology; assay type: physicochemical; details: hydrogel 3% w/v, heated from 25 to 60° C. (3° C./min), oscillatory stress 5 Pa, 1 Hz
Procedure: The determination of gel-sol transition temperature can also be determinated by rheology. The hydrogel (3% product 6 of example 2, w/v) was heated progressively from 25 to 60° C. (3° C./min). The oscillatory stress applied was set to 5 Pa at a constant frequency (1 Hz). The sol-gel transition point was taken as the temperature at which the gel became liquid. This melting temperature is reached at the intersection of the viscoelastic moduli (G′ and G″). This value is of 46° C. which is compatible with the cell culture at the gel state (37° C.).

[4] = Gelation test (tube inversion); assay type: physicochemical; details: aqueous dispersion 1.5 wt % in Milli-Q water, heated until dissolution (45° C.), cooled to room temperature
Procedure: The aqueous dispersions (Milli-Q water, 18 MΩ·cm^−1) containing 1.5 wt % of compounds 5 and 6 obtained in examples 1 and 2 were heated until dissolution (at 45° C.) and gradually allowed to cool to room temperature unless otherwise stated.

| Structure (SMILES) | concentrations up to which the compound is non toxic ([1]; MTT, human ASCs, tested 5 μM to 5 mM, value printed as approximate) | cytotoxicity (result in words) ([1]; summary of example 12) | cytocompatibility when used as cell culture medium [2] | Live/dead staining result (hASCs or D1) | sol-gel transition temperature (Tgel), intersection of G′ and G″ [3] | gel formation (solid aggregate mass stable to inversion of the container) [4] |
| --- | --- | --- | --- | --- | --- | --- |
| Cc1cn([C@H]2C[C@H](O)[C@@H](Cn3cc(COCCCCCCCCCCCCOCc4cn(C[C@H]5O[C@@H](n6cc(C)c(=O)n(Cc7cn([C@@H]8O[C@H](CO)[C@@H](O)[C@H](O)[C@H]8O)nn7)c6=O)C[C@@H]5O)nn4)nn3)O2)c(=O)n(Cc2cn([C@@H]3O[C@H](CO)[C@@H](O)[C@H](O)[C@H]3O)nn2)c1=O [compound 6] | ≤ 1000 µM | not cytotoxic | god cytocompatibility | vast majority of green (living) cells | 46 °C | form gels |
| Cc1cn([C@H]2C[C@H](O)[C@@H](Cn3cc(COCCCCCCCCCCCCO)nn3)O2)c(=O)n(Cc2cn([C@@H]3O[C@H](CO)[C@@H](O)[C@H](O)[C@H]3O)nn2)c1=O [compound 5, 5′-[4-(12-hydroxydodecanyloxy)methyl)-1H-1,2,3-triazol-1-yl]-5′-deoxy-N3-(1-((β-D-glucopyranoside)-1H-1,2,3-triazol-4-yl)methyl thymidine] |  |  |  |  |  | form gels |
